Measurements taken from publication PMC4895043, “Biological Activities of Aerial Parts Extracts of Euphorbia characias” (BioMed Research International, 2016).

Target: T1, HIV-1 RT (HIV-1 M:B_HXB2R, UniProt P04585)
T1 construct: gene gag-pol; mature RT cut from Gag-Pol polyprotein
Assay: RNase H inhibition assay
Format: biochemical
Settings: RNase H activity; read-out: IC50 (μg/mL)^∗ / HIV-1 / RNase H
From the text: RNase H inhibition assay on HIV-1 RT

Substance: RDS1759
- IC50: 7.1 ± 0.5 µM
